{
  "source": "patent US20150159141A1",
  "about": "“ISOLATED HUMAN LIVER TUMOR CELL LINE AND METHOD OF AGENT SCREENING” (Industrial Technology Research Institute, priority 2013, published 2015)",
  "key": {"liver cancer": {"system": "liver cancer", "settings": "phase III of human clinical trials; cited from earlier work"}, "[1]": {"system": "human liver tumor cell line ITRI-H28", "test": "Cell viability of ITRI-H28 cells after Sorafenib treatment (Alarmablue assay)", "format": "cell-based", "settings": "48-hour treating period, P value 0.02, read-out: half maximal inhibitory concentration (IC50)", "procedure": "In the experiment, a plurality of plates are prepared with 1×10^4 ITRI-H28 cells seeded respectively thereon and divided into a plurality of groups, and the groups are treated with different concentrations of Sorafenib, such as 30, 15, 7.5, 3.75, 1.88, and 0.94 uM. Next, after a 48-hour treating period, a cell viability of each of the groups is measured by an Alarmablue measurement assay, and results are shown in FIG. 3.\nA calculation is done according to the results of FIG. 3, a half maximal inhibitory concentration (IC50) of Sorafenib in the ITRI-H28 cell line are about 2.79±0.41, and a statistical P value is 0.02. According to the above results, the human liver tumor cell line ITRI-H28 has a susceptibility to the HCV-related HCC drug, which is able to use in a HCV-related HCC drug screening. Furthermore, according to the above experiments, the human liver tumor cell line ITRI-H28 has cancer cell properties, which can be used widely in a liver drug screening."}},
  "data": [
    {"smiles": "CNC(=O)c1cc(Oc2ccc(NC(=O)Nc3ccc(Cl)c(C(F)(F)F)c3)cc2)ccn1", "note": "[Sorafenib]", "values": [
      {"measurement": "extension of patient survival time", "setting": "liver cancer", "result": "three"},
      {"measurement": "IC50", "setting": "[1]", "result": "~2790", "unit": "nM"}
    ]}
  ]
}
